Results reported in patent US11939314B2, “Quinolin-2-one derivatives” (MERCK PATENT GMBH, priority 2016, dated 2024).

Tests used:
PDGFRalpha(V561D) = target: T1, PDGFRalpha(V561D) (Homo sapiens, UniProt P16234, V561D); test: PDGFRalpha(V561D) assay; type: biochemical; settings: recombinant human PDGFRalpha aa 550-end, 200 μM ATP, 1.4E-06 means 1.4×10^−6, read-out: Inhibition (IC50) of PDGFRα (V561D)
T1 construct: recombinant human PDGFRalpha, amino acids 550end containing the V561 D mutation; 6His (N)
T1 sequence (P16234 550-1089 V561D): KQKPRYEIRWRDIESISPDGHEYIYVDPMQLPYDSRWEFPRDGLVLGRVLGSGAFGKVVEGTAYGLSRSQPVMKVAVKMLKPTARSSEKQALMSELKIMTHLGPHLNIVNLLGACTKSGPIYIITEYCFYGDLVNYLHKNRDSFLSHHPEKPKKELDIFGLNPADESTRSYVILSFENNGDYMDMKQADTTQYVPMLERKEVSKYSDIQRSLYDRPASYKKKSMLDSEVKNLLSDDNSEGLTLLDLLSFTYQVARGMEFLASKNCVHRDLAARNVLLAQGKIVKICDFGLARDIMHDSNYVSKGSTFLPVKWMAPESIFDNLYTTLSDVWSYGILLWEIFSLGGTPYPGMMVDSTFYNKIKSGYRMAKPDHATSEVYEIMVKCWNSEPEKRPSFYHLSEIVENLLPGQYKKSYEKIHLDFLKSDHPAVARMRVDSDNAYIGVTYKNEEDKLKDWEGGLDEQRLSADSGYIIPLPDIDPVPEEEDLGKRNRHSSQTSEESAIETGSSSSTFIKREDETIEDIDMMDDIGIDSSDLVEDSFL
In short: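 Radiometric filter-binding assay: substrate phosphorylation by recombinant N-His-tagged human PDGFRα 550-end V561D was quenched with 3% phosphoric acid after 40 min at room temperature, then counted.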

c-Kit(V654A) = target: T2, c-Kit(V654A) (Homo sapiens, UniProt P10721, V654A); test: c-Kit(V654A) assay; type: biochemical; settings: recombinant human c-Kit aa 544-end, 200 μM ATP, 1.4E-06 means 1.4×10^−6, read-out: Inhibition (IC50) of c-KIT (V654A)
T2 construct: amino acids 544-end containing the V654A mutation; GST (N)
T2 sequence (P10721 544-976 V654A): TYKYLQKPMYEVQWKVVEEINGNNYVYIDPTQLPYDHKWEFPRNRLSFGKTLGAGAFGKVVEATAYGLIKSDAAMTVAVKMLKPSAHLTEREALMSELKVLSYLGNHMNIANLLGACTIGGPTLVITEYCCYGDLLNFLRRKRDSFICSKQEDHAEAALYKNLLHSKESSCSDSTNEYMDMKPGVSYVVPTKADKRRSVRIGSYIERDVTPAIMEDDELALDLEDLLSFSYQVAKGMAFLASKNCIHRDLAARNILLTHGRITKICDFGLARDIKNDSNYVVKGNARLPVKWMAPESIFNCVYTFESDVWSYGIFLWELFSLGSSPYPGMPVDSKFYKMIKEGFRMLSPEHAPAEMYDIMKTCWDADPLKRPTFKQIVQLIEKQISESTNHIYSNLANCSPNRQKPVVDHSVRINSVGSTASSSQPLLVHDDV
In short: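 Radiometric filter-binding read-out: substrate 33P incorporation counted by scintillation after P30 filtermat washes in 75 mM phosphoric acid and methanol. Enzyme: N-GST recombinant human c-Kit aa 544-end carrying V654A.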

[1] = system: GISTs with primary mutation; settings: secondary resistance emerges in almost all tumors; cited from earlier work

SMILES | IC50 (PDGFRalpha(V561D)) | IC50 (c-Kit(V654A)) | initial response rate [1]
CN1CC[C@@H](Oc2ccc(-n3cc(-c4cc5cc(Cl)ccc5[nH]c4=O)nn3)cc2)C1 [A369, 6-chloro-3-{1-[4-((R)-1-methyl-pyrrolidin-3-yloxy)-phenyl]-1H-[1,2,3]triazol-4-yl}-1H-quinolin-2-one] | 34 nM | 13 nM | 
CN1CC[C@H](Oc2ccc(-n3cc(-c4cc5cc(F)ccc5[nH]c4=O)nn3)cc2)C1 [A370, 6-fluoro-3-{1-[4-((S)-1-methyl-pyrrolidin-3-yloxy)-phenyl]-1H-[1,2,3]triazol-4-yl}-1H-quinolin-2-one] | 58 nM | 31 nM | 
CN1CCC(Cc2ccc(-n3cc(-c4cc5cc(F)ccc5[nH]c4=O)nn3)cc2)CC1 [A371, 6-fluoro-3-{1-[4-(1-methyl-piperidin-4-ylmethyl)-phenyl]-1H-[1,2,3]triazol-4-yl}-1H-quinolin-2-one] | 11 nM | 34 nM | 
Cc1ccc(NC(=O)c2ccc(CN3CCN(C)CC3)cc2)cc1Nc1nccc(-c2cccnc2)n1 [Imatinib, imatinib] |  |  | ~70%
